Legend:
[1] = system: AMPK and ACC phosphorylation on L6 myotubes; test: AMPK and ACC phosphorylation on L6 myotubes (western blot); format: cell-based; details: L6 muscle cells treated for 1 hour, FIGS. 2A and 2B
Experimental: (§1) 2. Experimental principle: Small molecule compounds allosterically activate AMPK and cause the phosphorylation of substrate acetyl-CoA carboxylase (ACC) at Ser-79-site.
(§2) 3. Detection reagents: AMPK, phospho-AMPK (T172), phospho-ACC (S79), and total ACC antibodies were purchased from Cell Signaling Technology.
(§3) 1) The cells were exchanged into serum-free medium and starved for two hours, and compounds were added to treat (in 0.4% DMSO) for 1 hour. The cells to be harvested were washed with PBS once. 1×SDS gel loading buffer (50 mM Tris (pH6.8), 100 mM DTT, 2% SDS, 10% glycerol, 0.1% bromophenol blue) was added to lysis cells (24 well plates, […] per well).
(§4) 2) The sample was heated at 100° C. for 10 minutes and then centrifuged at 12000 g for 10 minutes. The supernatant was subjected to SDS-PAGE electrophoresis under following condition: spacer gel: 70 volts, and separation gel: 90 volts.
(§5) 3) After electrophoresis, the proteins were transferred onto nitrocellulose membrane using Biorad wet electrical transduction system. After the desired band was cut, the strips were blocked in a blocking solution (TBST, containing 5% BSA) for 1 hour at room temperature. The strips were place in a solution containing the primary antibody and incubated overnight at 4° C.
(§6) 4) On next day, the target band was placed in TBST and washed at room temperature for 10 minutes (3 times). […]

[2] = system: AMPK and ACC phosphorylation on HepG2 cells; test: AMPK and ACC phosphorylation on HepG2 cells (western blot); format: cell-based; details: different concentrations, FIG. 3
Experimental: as §1, §2, §3, §4, §5, §6

human AMPK (α2β1γ1) = target: T1, human AMPK (α2β1γ1) (Homo sapiens, UniProt P54619+P54646+Q9Y478); test: AMPK (α2β1γ1) activation at molecular level, HTRF KinEASE-STK S1 kinase assay; format: biochemical
T1 construct: made in house; host or cells: E. coli
T1 sequence (P54646 whole entry): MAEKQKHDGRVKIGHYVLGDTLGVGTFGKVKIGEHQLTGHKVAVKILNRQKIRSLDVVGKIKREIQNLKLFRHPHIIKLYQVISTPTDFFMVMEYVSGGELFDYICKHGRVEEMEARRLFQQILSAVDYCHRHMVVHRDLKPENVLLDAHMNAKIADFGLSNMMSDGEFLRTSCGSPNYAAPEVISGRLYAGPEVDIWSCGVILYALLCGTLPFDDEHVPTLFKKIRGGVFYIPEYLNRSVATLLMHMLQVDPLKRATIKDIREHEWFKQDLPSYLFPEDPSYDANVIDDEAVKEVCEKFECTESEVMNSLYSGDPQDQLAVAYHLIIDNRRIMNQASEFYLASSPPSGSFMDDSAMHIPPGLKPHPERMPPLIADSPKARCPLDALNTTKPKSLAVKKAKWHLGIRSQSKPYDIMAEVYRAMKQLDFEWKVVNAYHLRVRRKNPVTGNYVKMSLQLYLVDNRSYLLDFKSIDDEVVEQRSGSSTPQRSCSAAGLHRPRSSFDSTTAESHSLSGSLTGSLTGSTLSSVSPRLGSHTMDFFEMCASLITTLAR
T1 sequence (Q9Y478 whole entry): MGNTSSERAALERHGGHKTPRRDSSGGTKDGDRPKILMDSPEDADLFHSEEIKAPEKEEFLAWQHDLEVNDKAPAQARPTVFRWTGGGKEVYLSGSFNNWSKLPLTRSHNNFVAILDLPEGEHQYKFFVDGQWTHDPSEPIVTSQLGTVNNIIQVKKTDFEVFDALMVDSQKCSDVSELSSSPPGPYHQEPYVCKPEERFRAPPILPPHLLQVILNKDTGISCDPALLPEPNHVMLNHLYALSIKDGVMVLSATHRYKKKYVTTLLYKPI
T1 sequence (P54619 whole entry): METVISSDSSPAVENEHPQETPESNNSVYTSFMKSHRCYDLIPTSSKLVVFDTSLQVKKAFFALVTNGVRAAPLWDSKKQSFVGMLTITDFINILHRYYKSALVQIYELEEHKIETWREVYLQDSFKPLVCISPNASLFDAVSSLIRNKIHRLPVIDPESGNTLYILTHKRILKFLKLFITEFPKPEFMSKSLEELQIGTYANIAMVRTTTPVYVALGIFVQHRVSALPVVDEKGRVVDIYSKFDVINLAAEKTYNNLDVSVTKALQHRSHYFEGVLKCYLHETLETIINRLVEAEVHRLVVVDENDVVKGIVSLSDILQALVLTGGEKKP
Experimental: 1. Purpose of the experiment: To screen small molecule compounds that can activate AMPK (α2β1γ1).
2. Principle of the experiment: The peptide as substrate contains sites which can be AMPK phosphorylated. One terminal of the peptide is linked with biotin in the reaction system (containing 2 mM MgCl2, 400 μM DTT, 160 nM substrate peptide, 4 μM ATP and 1.6 nM AMPK). In the biotinylated terminal, biotin can link with streptavidin-XL665 (acceptor) so as to complete the labeling. After 45 minute of phosphorylation reaction, the phosphorylated substrate (i.e., product) can bind to an antibody (labeled Donor) which recognizes the phosphorylating site, and the biotin on the other terminal can linked to streptavidin-XL665 (acceptor) so that the resulting FRET signal can be detected with PE Evision. The final AMPK activity is expressed as a ratio of the 665 nm wavelength reading to the 615 nm wavelength reading (665 nm/615 nm).
3. Detection reagent: The human AMPK (α2β1γ1) protein was obtained by expression using an E. coli expression system and purification. HTRF KinEASE-STK S1 kit (purchased from Cisbio's); ATP (purchased from Sigma).
1) 200 nM AMPK (α2β1γ1) protein was incubated with 200 nM CaMKKβ at 30° C. for 4 hours in water bath to completely phosphorylate AMPK.
2) The enzyme reaction system (2 mM MgCl2, […], 160 nM substrate peptide, 4 µM ATP, and 1.6 nM AMPK) was prepared by using a white shallow plate purchased from PE. The reaction was reacted at 30° C. for 45 minutes. Phosphorylated recognizing peptides of the antibody and the XL665 Detection buffer were added and the mixture was incubated at room temperature for 3 hours before the signals were detected.

[3] = system: AMPK and ACC phosphorylation on SD rat primary hepatocytes; test: AMPK and ACC phosphorylation on SD rat primary hepatocytes (western blot); format: cell-based; details: primary hepatocytes of SD rats, different concentrations, FIG. 4
Experimental: as §1, §2, §3, §4, §5, §6

[4] = activation of human AMPK (α2β1γ1), 4 μM ATP, 45 min at 30° C.

## COc1ccc(CNC(=O)c2ccc(CN3C=C4C(=O)N(c5ccc(F)c(C(F)(F)F)c5)N=C4CC3)cc2)cc1OC [ZM-1]
[1]
  AMPK activation at the cellular level: dose-dependently activated
  downstream phosphorylation levels of ACC: increased accordingly
[2]
  AMPK activation: activate AMPK
  phosphorylation of ACC: upregulate phosphorylation of ACC in a concentration or gradient dependent manner
Human AMPK (α2β1γ1); Table 1 and FIG. 1
  allosteric activation of AMPK in molecular level: significantly and allosterically activate AMPK
Human AMPK (α2β1γ1); [4]
  Activation ratio (Fold): 3.3 Fold
  EC50: 2.1 µM
[3]
  AMPK activation: activate AMPK
  phosphorylation of ACC: upregulate phosphorylation of ACC in a concentration or gradient dependent manner

Reference: patent US10196389B2, “One class of pyrazolone compounds and use thereof” (SHANGHAI INSTITUTE OF MATERIA MEDICA, CHINESE ACADEMY OF …, priority 2014, dated 2019)
